The source of these data is patent publication US5239082A, “Sulfonamide tetrazole ACAT inhibitors” (Warner-Lambert Company, priority 1992, dated 1993).

As usually defined, the IC50 is the concentration needed to halve the response being measured.

For assay [1], the target named is T1, acyl-CoA: cholesterol acyltransferase (ACAT) (Oryctolagus cuniculus, UniProt G1SFD9).
T1 construct: tissue preparation containing rabbit intestinal microsomes; from tissue; host or cells: rabbit intestinal microsomes
T1 sequence (G1SFD9 1-524): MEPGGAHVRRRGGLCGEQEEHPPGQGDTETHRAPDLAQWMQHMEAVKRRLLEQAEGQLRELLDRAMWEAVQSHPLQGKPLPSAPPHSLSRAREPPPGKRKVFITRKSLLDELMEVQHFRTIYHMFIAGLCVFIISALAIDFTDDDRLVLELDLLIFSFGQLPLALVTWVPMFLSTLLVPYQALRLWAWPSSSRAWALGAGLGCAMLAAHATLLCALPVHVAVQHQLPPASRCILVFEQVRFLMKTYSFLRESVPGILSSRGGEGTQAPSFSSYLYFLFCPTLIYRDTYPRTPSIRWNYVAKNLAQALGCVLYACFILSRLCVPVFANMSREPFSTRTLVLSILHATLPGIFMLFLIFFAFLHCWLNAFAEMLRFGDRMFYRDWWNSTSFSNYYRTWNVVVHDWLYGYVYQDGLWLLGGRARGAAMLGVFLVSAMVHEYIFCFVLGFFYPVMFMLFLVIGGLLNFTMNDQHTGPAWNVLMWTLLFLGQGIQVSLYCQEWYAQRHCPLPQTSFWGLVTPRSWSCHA
Put plainly: in vitro ACAT inhibition test (IAI), radiolabeled cholesterol oleate formed from radiolabeled oleic acid in rabbit intestinal microsomes. The format is biochemical. Conditions: inhibition of acylation of cholesterol by oleic acid. Here is the method:
The ability of representative compounds of the present invention to inhibit ACAT was measured using an in vitro test more fully described in Field FJ, Salone RG. Biochemica et Biophysica 1982;712:557-70. The test assesses the ability of a test compound to inhibit the acylation of cholesterol by oleic acid by measuring the amount of radiolabeled cholesterol oleate formed from radiolabeled oleic acid in a tissue preparation containing rabbit intestinal microsomes.
The data appear in Table 1 where they are expressed as IC50 values; i.e., the concentration of test compound required to inhibit the activity of the enzyme by 50%.

Assay [2] in a line: in vivo screen designated APCC, rats on high fat, high cholesterol diet with 0.5% cholic acid, blood cholesterol. The arrangement: species or system male Sprague-Dawley rats. Conditions: Rattus norvegicus, 16 h, dosed at 4 PM in CMC/Tween, sacrificed at 8 AM, high cholesterol diet overnight, read-out: APCC (% ΔTC). From the text:
In one in vivo screen designated APCC, male Sprague-Dawley rats (200 to 225 g) were randomly divided into treatment groups and dosed at 4 PM with either vehicle (CMC/Tween) or suspensions of compounds in vehicle. The normal chow diet was then replaced with a high fat, high cholesterol diet with 0.5% cholic acid. The rats consumed this diet ad libitum during the night and were sacrificed at 8 AM to obtain blood samples for cholesterol analysis using standard procedures. Statistical differences between mean cholesterol values for the same vehicle were determined using analysis of variance followed by Fisher's least significant test. The results of this trial for representative compounds of the present invention also appear in Table 1.

On to `CCCCCCCCCCCCn1nnc(CS(=O)(=O)Nc2c(C(C)C)cccc2C(C)C)n1` [Example 1, N-[2,6-Bis(1-methylethyl)phenyl]-2-dodecyl-2H-tetrazole-5-methanesulfonamide], for which the IC50 in assay [1] came out at 0.222 µM. Besides, the change in vivo at 30 mg/kg in assay [2] is -61%.

`CCCCCCCCCCCCCCCCn1nnc(CS(=O)(=O)Nc2c(C(C)C)cccc2C(C)C)n1` [Example 2, N-[2,6-bis(1-methylethyl)phenyl]-2-hexadecyl-2H-tetrazole-5-methanesulfonamide] registered an IC50 in assay [1] of 0.6 µM. For the same compound, the change in vivo at 30 mg/kg in assay [2] was -20%.

On to `CCCCCCCCCCCCCCn1nnc(CS(=O)(=O)Nc2c(C(C)C)cccc2C(C)C)n1` [Example 3, N-[2,6-bis(1-methylethyl)phenyl]-2-tetradecyl-2H-tetrazole-5-methanesulfonamide], for which the IC50 in assay [1] was determined as 0.15 µM. Also, the change in vivo at 30 mg/kg in assay [2] was -42%.

On to `CCCCCCCCn1nnc(CS(=O)(=O)Nc2c(C(C)C)cccc2C(C)C)n1` [Example 4, N-[2,6-bis(1-methylethyl)phenyl]-2-octyl-2H-tetrazole-5-methanesulfonamide], for which, in assay [1], the midpoint of inhibition, the IC50, lay at 0.75 µM. In addition, the change in vivo at 30 mg/kg in assay [2] was -14%.

On to `CCCCCCCCCCCCCCCCCCn1nnc(CS(=O)(=O)Nc2c(C(C)C)cccc2C(C)C)n1` [Example 5, N-[2,6-bis(1-methylethyl)phenyl]-2-octadecyl-2H-tetrazole-5-methanesulfonamide], for which the IC50 in assay [1] turned out to be 7.6 µM. For the same compound, the change in vivo at 30 mg/kg in assay [2] was -31%.

In the case of `CCCCCCCCCCCCn1nnnc1CS(=O)(=O)Nc1c(C(C)C)cccc1C(C)C` [Example 6, N-[2,6-bis(1-methylethyl)phenyl]-1-dodecyl-1H-tetrazole-5-methanesulfonamide], the IC50 in assay [1] was determined as 1.2 µM. Besides, the change in vivo at 30 mg/kg in assay [2] is -41%.

Take `CCCCCCCCCCCCn1nnc(CS(=O)(=O)Nc2c(OC)cc(OC)cc2OC)n1` [Example 7, N-(2,4,6-trimethoxyphenyl)-2-dodecyl-2H-tetrazole-5-methanesulfonamide]: in assay [1], the IC50 turned out to be 0.18 µM. In addition, the change in vivo at 30 mg/kg in assay [2] is -60%.

In assay [1], `CCCCCCCCCCCCn1nnnc1CS(=O)(=O)Nc1c(OC)cc(OC)cc1OC` [Example 8, N-(2,4,6-trimethoxyphenyl)-1-dodecyl-1H-tetrazole-5-methanesulfonamide] gave an IC50 of 3.7 µM. In addition, the change in vivo at 30 mg/kg in assay [2] is -30%.

`CCCCCCCCCCCCn1nnc(C(C)(C)S(=O)(=O)Nc2c(C(C)C)cccc2C(C)C)n1` [Example 9, N-[2,6-Bis(1-methylethyl)phenyl]-2-dodecyl-α,α-dimethyl-2H-tetrazole-5-methanesulfonamide] gave an IC50 in assay [1] of 0.04 µM. Also, the change in vivo at 30 mg/kg in assay [2] was -53%.
